Reference: BindingDB's records for doi:10.7270/Q2513WMG (The Scripps Research Institute Molecular Screening Center, 2009)

Each compound was assayed against Transitional endoplasmic reticulum ATPase (Homo sapiens, UniProt P55072, C522A) (assay: C522A mutant p97 ATPase inhibitors, dose response, counter-screen for p97 inhibitor project, biochemical, luminescence (AID 1544)).
Transitional endoplasmic reticulum ATPase, sequence (P55072 2-806 C522A limits assumed): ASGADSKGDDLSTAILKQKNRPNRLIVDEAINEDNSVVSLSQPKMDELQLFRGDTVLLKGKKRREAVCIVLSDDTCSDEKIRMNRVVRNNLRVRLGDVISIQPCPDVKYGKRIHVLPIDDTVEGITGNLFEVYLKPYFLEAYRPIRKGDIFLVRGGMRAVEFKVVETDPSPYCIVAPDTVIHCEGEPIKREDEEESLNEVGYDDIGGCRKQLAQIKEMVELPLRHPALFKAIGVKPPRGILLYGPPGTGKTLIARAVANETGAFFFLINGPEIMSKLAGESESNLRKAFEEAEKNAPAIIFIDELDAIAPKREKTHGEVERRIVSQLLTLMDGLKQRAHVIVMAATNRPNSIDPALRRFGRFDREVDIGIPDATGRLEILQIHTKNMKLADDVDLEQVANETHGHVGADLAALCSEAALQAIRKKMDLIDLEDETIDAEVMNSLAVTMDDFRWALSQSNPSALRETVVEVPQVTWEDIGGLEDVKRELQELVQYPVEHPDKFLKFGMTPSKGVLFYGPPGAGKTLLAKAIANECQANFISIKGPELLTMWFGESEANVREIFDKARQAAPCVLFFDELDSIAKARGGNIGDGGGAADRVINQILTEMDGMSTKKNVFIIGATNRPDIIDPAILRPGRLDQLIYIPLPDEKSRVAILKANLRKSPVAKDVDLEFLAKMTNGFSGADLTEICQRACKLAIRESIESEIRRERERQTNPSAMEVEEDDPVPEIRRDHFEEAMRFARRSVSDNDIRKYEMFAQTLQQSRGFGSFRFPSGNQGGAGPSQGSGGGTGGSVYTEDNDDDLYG
For Cc1ccc(C)c(SCC(=O)OCC(=O)C(C#N)c2nc3ccccc3[nH]2)c1 (configuration not stated) [MLS000392255], the IC50 was greater than 50 µM.
With Cc1ccc(SCC(=O)C(C#N)c2nc3ccccc3s2)cc1 (configuration not stated) [(2Z)-2-(3H-1,3-benzothiazol-2-ylidene)-3-keto-4-(p-tolylthio)butyronitrile] the IC50 was greater than 50 µM.
On1[o+]nc2c1CCc1nc(-c3ccccc3)[n-]c1-2 [3-oxidanidyl-7-phenyl-4,5-dihydro-1H-imidazo[4,5-g][2,1,3]benzoxadiazol-3-ium] showed an IC50 greater than 50 µM.
Oc1ccc(CN=Nc2ccnc3cc(Cl)ccc23)cc1O [(4Z)-4-[[2-(7-chloroquinolin-4-yl)hydrazinyl]methylidene]-2-hydroxycyclohexa-2,5-dien-1-one] gave an IC50 greater than 50 µM.
With NS(=O)(=O)c1ccc(N=NCc2ccc(O)c(O)c2O)c([N+](=O)[O-])c1 [4-[[(E)-(2,3-dihydroxy-4-oxo-1-cyclohexa-2,5-dienylidene)methyl]hydrazo]-3-nitrobenzenesulfonamide] the IC50 was greater than 50 µM.
In the case of COc1ccc(CN=Nc2nnc(-c3ccccc3)c(=O)[nH]2)cc1 [4-methoxybenzaldehyde (5-oxo-6-phenyl-4,5-dihydro-1,2,4-triazin-3-yl)hydrazone], the IC50 is reported as greater than 50 µM.
CN(C)[C@@H]1C(=O)C(C(N)=O)C(=O)[C@@]2(O)C(=O)C3C(=O)c4c(O)cccc4[C@@](C)(O)[C@H]3[C@H](O)[C@@H]12 (stereo partly drawn) [(2E,4S,4aR,5S,5aR,6S,12aS)-2-[azanyl(oxidanyl)methylidene]-4-(dimethylamino)-6-methyl-5,6,10,11,12a-pentakis(oxidanyl)-4,4a,5,5a-tetrahydrotetracene-1,3,12-trione] was tested, and the IC50 was greater than 50 µM.
